Laboratory results as given in the supplement of paper PMC11061612.

Key:
Lapatinib = compound: CS(=O)(=O)CCNCc1ccc(-c2ccc3ncnc(Nc4ccc(OCc5cccc(F)c5)c(Cl)c4)c3c2)o1 [Lapatinib]; details: max 10 µM
Method in brief: (§1)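 After 24 hours at 37°C and 5% CO2 in 1536-well plates holding 7.5 μl of DMEM/F12 or RPMI with 10% FBS, cancer cell lines were dosed for 72 hours, with final DMSO typically 0.2%. Viability came from CellTiter-Glo 2.0 luminescence, scaled between the means of blank wells and DMSO wells. A non-linear mixed effects model fitted a two-parameter logistic curve to each dose response to give the single-agent IC50.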

AZD8186 = compound: C[C@@H](Nc1cc(F)cc(F)c1)c1cc(C(=O)N(C)C)cc2c(=O)cc(N3CCOCC3)oc12 [AZD8186]; details: max 3 µM
Method in brief: as §1

AZD4320 = compound: CN(CC[C@H](CSC1=CC=CC=C1)NC2=C(C=C(C=C2)S(=O)(=O)NC(=O)C3=CC=C(C=C3)N4CCC(CC4)[C@H](C5=CC=CC=C5C6=CC=C(C=C6)Cl)O)S(=O)(=O)C(F)(F)F)CCO [AZD4320]; details: max 1 µM
Method in brief: as §1

Olaparib = compound: O=C(c1cc(Cc2n[nH]c(=O)c3ccccc23)ccc1F)N1CCN(C(=O)C2CC2)CC1 [Olaparib]; details: max 10 µM
Method in brief: as §1

SN-38 = compound: CCc1c2c(nc3ccc(O)cc13)-c1cc3c(c(=O)n1C2)COC(=O)[C@]3(O)CC [SN-38]; details: max 0.3 µM
Method in brief: as §1

SG3199 = compound: CC1=CN2[C@@H](C1)C=NC3=CC(=C(C=C3C2=O)OC)OCCCCCOC4=C(C=C5C(=C4)N=C[C@@H]6CC(=CN6C5=O)C)OC [SG3199]; details: max 0.001 µM
Method in brief: as §1

Taselisib = compound: Cc1nc(-c2cn3c(n2)-c2ccc(-c4cnn(C(C)(C)C(N)=O)c4)cc2OCC3)n(C(C)C)n1 [Taselisib]; details: max 10 µM
Method in brief: as §1

Trametinib = compound: CC(=O)Nc1cccc(-n2c(=O)n(C3CC3)c(=O)c3c(Nc4ccc(I)cc4F)n(C)c(=O)c(C)c32)c1 [Trametinib]; details: max 1 µM
Method in brief: as §1

Capivasertib = compound: C1CN(CCC1(C(=O)N[C@@H](CCO)C2=CC=C(C=C2)Cl)N)C3=NC=NC4=C3C=CN4 [Capivasertib]; details: max 10 µM
Method in brief: as §1

Savolitinib = compound: C[C@@H](c1ccc2nccn2c1)n1nnc2ncc(-c3cnn(C)c3)nc21 [Savolitinib]; details: max 1 µM
Method in brief: as §1

Gefitinib = compound: COc1cc2ncnc(Nc3ccc(F)c(Cl)c3)c2cc1OCCCN1CCOCC1 [Gefitinib]; details: max 10 µM
Method in brief: as §1

Selumetinib = compound: Cn1cnc2c(F)c(Nc3ccc(Br)cc3Cl)c(C(=O)NOCCO)cc21 [Selumetinib]; details: max 10 µM
Method in brief: as §1

AZD0156 = compound: CN(C)CCCOc1ccc(-c2ccc3ncc4c(c3c2)n(C2CCOCC2)c(=O)n4C)cn1 [AZD0156]; details: max 3 µM
Method in brief: as §1

Doxorubicin = compound: COc1cccc2c1C(=O)c1c(O)c3c(c(O)c1C2=O)C[C@@](O)(C(=O)CO)C[C@@H]3O[C@H]1C[C@H](N)[C@H](O)[C@H](C)O1 [Doxorubicin]; details: max 1 µM
Method in brief: as §1

Dasatinib = compound: CC1=C(C(=CC=C1)Cl)NC(=O)C2=CN=C(S2)NC3=CC(=NC(=N3)C)N4CCN(CC4)CCO [Dasatinib]; details: max 2 µM
Method in brief: as §1

AZD1390 = compound: CC(C)n1c(=O)n(C)c2cnc3cc(F)c(-c4ccc(OCCCN5CCCCC5)nc4)cc3c21 [AZD1390]; details: max 0.3 µM
Method in brief: as §1

Palbociclib = compound: CC(=O)c1c(C)c2cnc(Nc3ccc(N4CCNCC4)cn3)nc2n(C2CCCC2)c1=O [Palbociclib]; details: max 10 µM
Method in brief: as §1

Prexasertib = compound: COc1cccc(OCCCN)c1-c1cc(Nc2cnc(C#N)cn2)n[nH]1 [Prexasertib]; details: max 1 µM
Method in brief: as §1

Crizotinib = compound: C[C@@H](Oc1cc(-c2cnn(C3CCNCC3)c2)cnc1N)c1c(Cl)ccc(F)c1Cl [Crizotinib]; details: max 10 µM
Method in brief: as §1

Venetoclax = compound: CC1(C)CCC(CN2CCN(c3ccc(C(=O)NS(=O)(=O)c4ccc(NCC5CCOCC5)c([N+](=O)[O-])c4)c(Oc4cnc5[nH]ccc5c4)c3)CC2)=C(c2ccc(Cl)cc2)C1 [Venetoclax]; details: max 1 µM
Method in brief: as §1

AZD2811 = compound: CCN(CCO)CCCOc1ccc2c(Nc3cc(CC(=O)Nc4cccc(F)c4)[nH]n3)ncnc2c1 [AZD2811]; details: max 1 µM
Method in brief: as §1

AZD6738 = compound: C[C@@H]1COCCN1C2=NC(=NC(=C2)C3(CC3)[S@](=N)(=O)C)C4=C5C=CNC5=NC=C4 [AZD6738]; details: max 10 µM
Method in brief: as §1

AZD5991 = compound: Cc1c2c(nn1C)CSCc1cc(n(C)n1)CSc1cc(c3ccccc3c1)OCCCc1c(C(=O)O)n(C)c3c-2c(Cl)ccc13 [AZD5991]; details: max 1 µM
Method in brief: as §1

AZD1775 = compound: C=CCn1c(=O)c2cnc(Nc3ccc(N4CCN(C)CC4)cc3)nc2n1-c1cccc(C(C)(C)O)n1 [AZD1775]; details: max 3 µM
Method in brief: as §1

AZD5153 = compound: COc1nnc2ccc(N3CCC(c4ccc(OCCN5CCN(C)C(=O)[C@H]5C)cc4)CC3)nn12 [AZD5153]; details: max 1 µM
Method in brief: as §1

Alisertib = compound: COc1cc(Nc2ncc3c(n2)-c2ccc(Cl)cc2C(c2c(F)cccc2OC)=NC3)ccc1C(=O)O [Alisertib]; details: max 10 µM
Method in brief: as §1

AZD7648 = compound: Cc1cc2ncnn2cc1Nc1ncc2c(n1)n(C1CCOCC1)c(=O)n2C [AZD7648]; details: max 10 µM
Method in brief: as §1

MK-2206 = compound: NC1(c2ccc(-c3nc4ccn5c(=O)[nH]nc5c4cc3-c3ccccc3)cc2)CCC1 [MK-2206]; details: max 10 µM
Method in brief: as §1

Cell Line | IC50, cell viability 72 h (Lapatinib) [µM] | IC50, cell viability 72 h (AZD8186) [µM] | IC50, cell viability 72 h (AZD4320) [µM] | IC50, cell viability 72 h (Olaparib) [µM] | IC50, cell viability 72 h (SN-38) [µM] | IC50, cell viability 72 h (SG3199) [µM] | IC50, cell viability 72 h (Taselisib) [µM] | IC50, cell viability 72 h (Trametinib) [µM] | IC50, cell viability 72 h (Capivasertib) [µM] | IC50, cell viability 72 h (Savolitinib) [µM] | IC50, cell viability 72 h (Gefitinib) [µM] | IC50, cell viability 72 h (Selumetinib) [µM] | IC50, cell viability 72 h (AZD0156) [µM] | IC50, cell viability 72 h (Doxorubicin) [µM] | IC50, cell viability 72 h (Dasatinib) [µM] | IC50, cell viability 72 h (AZD1390) [µM] | IC50, cell viability 72 h (Palbociclib) [µM] | IC50, cell viability 72 h (Prexasertib) [µM] | IC50, cell viability 72 h (Crizotinib) [µM] | IC50, cell viability 72 h (Venetoclax) [µM] | IC50, cell viability 72 h (AZD2811) [µM] | IC50, cell viability 72 h (AZD6738) [µM] | IC50, cell viability 72 h (AZD5991) [µM] | IC50, cell viability 72 h (AZD1775) [µM] | IC50, cell viability 72 h (AZD5153) [µM] | IC50, cell viability 72 h (Alisertib) [µM] | IC50, cell viability 72 h (AZD7648) [µM] | IC50, cell viability 72 h (MK-2206) [µM]
NCI-H2141 (Small Cell Lung Carcinoma) | > 10 | > 3 | 0.307 | > 10 | > 0.3 | > 0.001 | > 10 | > 1 | > 10 | > 1 | > 10 | > 10 | > 3 | > 1 | > 2 | > 0.3 | > 10 | 0.458 | > 10 | > 1 | > 1 | > 10 | > 1 | 2.2 | > 1 | > 10 | > 10 | –
NCI-H2591 (Mesothelioma) | > 10 | > 3 | > 1 | > 10 | 0.0717 | > 0.001 | > 10 | > 1 | > 10 | > 1 | > 10 | > 10 | > 3 | > 1 | > 2 | > 0.3 | > 10 | > 1 | > 10 | > 1 | > 1 | > 10 | > 1 | > 3 | > 1 | > 10 | > 10 | > 10
OS-RC-2 (Kidney Carcinoma) | > 10 | 1.91 | > 1 | > 10 | > 0.3 | > 0.001 | > 10 | > 1 | > 10 | > 1 | > 10 | > 10 | > 3 | > 1 | > 2 | > 0.3 | > 10 | 0.433 | > 10 | > 1 | > 1 | > 10 | > 1 | > 3 | > 1 | > 10 | > 10 | –
PA-1 (Ovarian Carcinoma) | 5.15 | 1.06 | > 1 | > 10 | 0.0196 | > 0.001 | 0.248 | 0.869 | 0.941 | > 1 | > 10 | > 10 | > 3 | 0.209 | 0.0302 | > 0.3 | 1.62 | 0.187 | 3.09 | > 1 | > 1 | 3.17 | 0.0807 | 0.543 | 0.0411 | 0.238 | > 10 | –
SISO (Cervical Carcinoma) | > 10 | > 3 | > 1 | > 10 | 0.0236 | > 0.001 | > 10 | > 1 | > 10 | > 1 | > 10 | > 10 | > 3 | 0.29 | > 2 | > 0.3 | > 10 | 0.237 | > 10 | > 1 | > 1 | > 10 | > 1 | 1.53 | > 1 | 6.21 | > 10 | –
SK-MES-1 (Squamous Cell Lung Carcinoma) | 6.63 | > 3 | > 1 | > 10 | 0.0305 | > 0.001 | 4.88 | 0.178 | > 10 | > 1 | > 10 | > 10 | > 3 | > 1 | > 2 | > 0.3 | > 10 | 0.0605 | > 10 | > 1 | > 1 | 8 | > 1 | 1.36 | > 1 | > 10 | > 10 | –
SK-MG-1 (Low Grade Glioma) | > 10 | 2.73 | > 1 | > 10 | 0.06 | > 0.001 | 1.62 | > 1 | > 10 | > 1 | > 10 | > 10 | > 3 | > 1 | 0.886 | > 0.3 | > 10 | 0.0828 | > 10 | > 1 | > 1 | > 10 | > 1 | > 3 | > 1 | > 10 | > 10 | –
TT2609-C02 (Thyroid Gland Carcinoma) | > 10 | > 3 | > 1 | > 10 | 0.069 | > 0.001 | > 10 | 0.28 | > 10 | > 1 | > 10 | 6.35 | > 3 | > 1 | > 2 | > 0.3 | > 10 | > 1 | > 10 | > 1 | > 1 | > 10 | > 1 | > 3 | > 1 | > 10 | > 10 | –
